Our source for the immunoreaction with sera values is EP0309566B1, “STLV-III-RELATED POLYPEPTIDES, DIAGNOSTIC SYSTEMS AND ASSAY METHODS” (JOHNSON AND JOHNSON, priority 1987, dated 1994).

One test concerns antibodies to HIV-2. The test can be described thus: Specificity ELISA (Example 12, Figure 3), HIV-2 antibody positive sera. Format: binding, human. The note with it: 20 sera containing antibodies to HIV-2 but not to HIV-1 TMP gp41 (West Africans); positive O.D. above 0.150. (In an ELISA, binding on a coated surface is turned into a signal by an enzyme label.)
Another test concerns antibodies against HIV-1. Briefly: Specificity ELISA (Example 12, Figure 3), HIV-1 antibody positive sera. Format: binding, human. Conditions: 20 sera with antibodies against HIV-1; positive O.D. above 0.150. The source says:
In the Figures forming a portion of the disclosure of this invention: • Figure 1 illustrates a portion of the STLV-IIImac TMP amino acid residue sequence. The sequence is shown from left to right and in the direction of amino-terminus to carboxy-terminus in a single-letter code. The residue positions have been numbered as illustrated from 1-33. • Figure 2 illustrates, in a manner similar to Figure 1, a portion of the amino acid residue sequence of the HIV-1 TMP and represent gp41 amino acid residues […] as described in Ratner et al., Nature, 313:277-283 (1985). However, for ease of discussion, those residue positions have been renumbered as illustrated from 1-32. • Figure 3 contains 2 panels illustrating antibody determinations using a diagnostic system of this invention to assay (a) 20 sera from individuals in Guinea-Bissau previously determined to have antibodies against HIV-related viruses (West Africans), (b) 20 sera from HIV-1-infected individuals and (c) 20 sera from blood donors without antibodies to HIV-1 or HIV-2. Sera were considered positive (closed symbols) when they produced optical density (O.D.) values above 0.150 (the mean O.D. of negative samples plus 6 standard deviations). Negative sera are represented by open symbols. […]

With AIEKYLEDQAQLNAWCAFRQVC [p80], the immunoreaction with sera entry in the test on antibodies to HIV-2 is “pronounced reactions”; with antibodies against HIV-1 it was “with one exception, produced no substantial immunoreaction”.
